Laboratory results as given in US9914730B2, “Azaquinazoline inhibitors of Atypical protein Kinase C” (Ignyta, Inc., priority 2012, dated 2018).
pIC50: −log10 of the molar value.

Target: T1, full-length human PKCι (Homo sapiens, UniProt P41743)
T1 construct: Recombinant, full-length human PKCι expressed in Sf21 insect cells is also commercially available; purchased; host or cells: Sf21 insect cells
T1 sequence (P41743 1-596): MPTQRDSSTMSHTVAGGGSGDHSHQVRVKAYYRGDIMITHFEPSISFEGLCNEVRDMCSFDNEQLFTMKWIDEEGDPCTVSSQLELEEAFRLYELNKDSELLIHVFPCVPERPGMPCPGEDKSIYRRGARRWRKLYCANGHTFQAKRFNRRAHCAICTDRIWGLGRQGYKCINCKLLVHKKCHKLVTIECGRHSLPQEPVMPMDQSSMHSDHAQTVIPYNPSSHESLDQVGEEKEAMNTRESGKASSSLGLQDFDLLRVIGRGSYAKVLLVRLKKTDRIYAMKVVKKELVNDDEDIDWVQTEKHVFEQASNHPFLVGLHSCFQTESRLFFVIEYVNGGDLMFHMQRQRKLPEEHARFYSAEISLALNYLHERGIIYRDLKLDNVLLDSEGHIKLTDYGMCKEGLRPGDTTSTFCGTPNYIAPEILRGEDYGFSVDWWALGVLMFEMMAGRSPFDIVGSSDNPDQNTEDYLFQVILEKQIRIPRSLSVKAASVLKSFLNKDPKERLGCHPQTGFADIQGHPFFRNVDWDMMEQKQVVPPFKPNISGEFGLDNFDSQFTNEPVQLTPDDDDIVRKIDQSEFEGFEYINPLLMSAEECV
Test: PKCι IC50 IMAP assay, full-length PKCι at 150 μM ATP
Format: biochemical
Details: read-out: IC50 in IMAP assay against full length PKCi at 150 μM ATP
Procedure, shortened: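 Phosphorylation of a 5FAM-tagged PKCε pseudopeptide-derived substrate (100 nM) by full-length recombinant human PKCι was monitored by IMAP fluorescence polarisation. ATP was held at 150 μM, five times its apparent KM, with 60 min room-temperature incubation.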

Row | pIC50 | SMILES
1 | 6.00 to 7.00 | COc1cc(N2CCOCC2)ccc1Nc1cc(-c2nc(N3CCNCC3)c3c(OC)cncc3n2)ccn1 [Example 359, (2-Methoxy-4-morpholin-4-yl-phenyl)-[4-(5-methoxy-4-piperazin-1-yl-pyrido[3,4-d]pyrimidin-2-yl)-pyridin-2-yl]-amine]
2 | 6.00 to 7.00 | CC(=O)Nc1cc(-c2nc(N3CCNCC3)c3c(Cl)cncc3n2)ccn1 [Example 251, N-[4-(5-Chloro-4-piperazin-1-yl-pyrido[3,4-d]pyrimidin-2-yl)-pyridin-2-yl]-acetamide]
3 | > 7.00 | COc1ccnc(Nc2cc(-c3nc(N4CCNCC4)c4c(OC)cncc4n3)ccn2)c1 [Example 401, [4-(5-Methoxy-4-piperazin-1-yl-pyrido[3,4-d]pyrimidin-2-yl)-pyridin-2-yl]-(4-methoxy-pyridin-2-yl)-amine]
4 | 6.00 to 7.00 | COc1cncc2nc(-c3ccnc(NC(=O)C(C)(C)C)c3)nc(N3CCNCC3)c12 [Example 217, N-[4-(5-Methoxy-4-piperazin-1-yl-pyrido[3,4-d]pyrimidin-2-yl)-pyridin-2-yl]-2,2-dimethyl-propionamide]
5 | 6.00 to 7.00 | COc1cncc2nc(-c3ccnc(NC(=O)[C@@H](C)c4ccccc4)c3)nc(N3CCNCC3)c12 [Example 409, (S)-N-[4-(5-Methoxy-4-piperazin-1-yl-pyrido[3,4-d]pyrimidin-2-yl)-pyridin-2-yl]-2-phenyl-propionamide]
6 | > 7.00 | COc1cncc2nc(-c3ccnc(Nc4ncco4)c3)nc(N3CCNCC3)c12 [Example 220, [4-(5-Methoxy-4-piperazin-1-yl-pyrido[3,4-d]pyrimidin-2-yl)-pyridin-2-yl]-oxazol-2-yl-amine]
7 | > 7.00 | COc1cncc2nc(-c3ccnc(Nc4cnn(-c5ccccc5)c4)c3)nc(N3CCNCC3)c12 [Example 489, 4-(5-Methoxy-4-piperazin-1-yl-pyrido[3,4-d]pyrimidin-2-yl)-N-(1-phenylpyrazol-4-yl)pyridin-2-amine]
8 | > 7.00 | COc1cncc2nc(-c3ccnc(NC(=O)Cc4cccc(C#N)c4)c3)nc(N3CCNCC3)c12 [Example 356, 2-(3-Cyano-phenyl)-N-[4-(5-methoxy-4-piperazin-1-yl-pyrido[3,4-d]pyrimidin-2-yl)-pyridin-2-yl]-acetamide]
9 | 5.00 to 6.00 | CCNC(=O)C1CCN(c2nc(-c3ccnc(Nc4c(F)cccc4F)c3)nc3cncc(C4CC4)c23)CC1 [Example 723, 1-{5-Cyclopropyl-2-[2-(2,6-difluoro-phenylamino)-pyridin-4-yl]-pyrido[3,4-d]pyrimidin-4-yl}-piperidine-4-carboxylic acid ethylamide]
10 | 6.00 to 7.00 | CN(C)CCOc1nc(-c2ccnc(Nc3c(F)cccc3F)c2)nc2cncc(C3CC3)c12 [Example 826, {4-[5-Cyclopropyl-4-(2-dimethylamino-ethoxy)-pyrido[3,4-d]pyrimidin-2-yl]-pyridin-2-yl}-(2,6-difluoro-phenyl)-amine]
11 | 6.00 to 7.00 | CC(=O)Nc1cc(-c2nc(N3CCN[C@@H](CS(C)(=O)=O)C3)c3c(C4CC4)cncc3n2)ccn1 [Example 770, N-{4-[5-Cyclopropyl-4-((R)-3-methanesulfonyl-methyl-piperazin-1-yl)-pyrido[3,4-d]pyrimidin-2-yl]-pyridin-2-yl}-acetamide]
12 | > 7.00 | C[C@@H](Nc1cc(-c2nc(N3CCNCC3)c3c(C4CC4)cncc3n2)ccn1)C1CC1 [Example 810, ((R)-1-Cyclopropyl-ethyl)-[4-(5-cyclopropyl-4-piperazin-1-yl-pyrido[3,4-d]pyrimidin-2-yl)-pyridin-2-yl]-amine]
13 | > 7.00 | CC1(C)CN(c2nc(-c3ccnc(Nc4nc(F)c(C5CC5)cc4F)c3)nc3cncc(C4CC4)c23)CCN1 [Example 2125, (5-Cyclopropyl-3,6-difluoro-pyridin-2-yl)-{4-[5-cyclopropyl-4-(3,3-dimethyl-piperazin-1-yl)-pyrido[3,4-d]pyrimidin-2-yl]-pyridin-2-yl}-amine]
14 | > 7.00 | c1cc(-c2nc(N3CCNCC3)c3c(C4CC4)cncc3n2)cc(Nc2ccc3nonc3c2)n1 [Example 2116, Benzo[1,2,5]oxadiazol-5-yl-[4-(5-cyclopropyl-4-piperazin-1-yl-pyrido[3,4-d]pyrimidin-2-yl)-pyridin-2-yl]-amine]
15 | 5.00 to 6.00 | OCC1CN(c2nc(-c3ccnc4[nH]c(C(F)(F)F)cc34)nc3cncc(C4CC4)c23)C1 [Example 1243, {1-[5-Cyclopropyl-2-(2-tritluoromethyl-1H-pyrrolo[2,3-b]pyridin-4-yl)-pyrido[3,4-d]pyrimidin-4-yl]-azetidin-3-yl}-methanol]
16 | 6.00 to 7.00 | COc1cc(N2CCOCC2)ccc1Nc1cc(-c2nc(N[C@@H]3CCNC3)c3c(OC)cncc3n2)ccn1 [Example 360, {5-Methoxy-2-[2-(2-methoxy-4-morpholin-4-yl-phenylamino)-pyridin-4-yl]-pyrido[3,4-d]pyrimidin-4-yl}-(R)-pyrrolidin-3-yl-amine]
17 | > 7.00 | c1ccc(Nc2cc(-c3nc(N4CCNCC4)c4c(C5CC5)cncc4n3)ccn2)cc1 [Example 279, [4-(5-Cyclopropyl-4-piperazin-1-yl-pyrido[3,4-d]pyrimidin-2-yl)-pyridin-2-yl]-phenyl-amine]
18 | 5.00 to 6.00 | COc1cncc2nc(-c3ccncc3)nc(N3C[C@@H](C)N[C@@H](C)C3)c12 [Example 51, 1-[5-methoxy-2-(pyridin-4-yl)-pyrido[3,4-d]-pyrimidin-4-yl]-3,5-cis-dimethylpiperazine]
19 | > 7.00 | COCC(C)(C)c1cc2c(-c3nc(N4CCNCC4)c4c(C5CC5)cncc4n3)ccnc2[nH]1 [Example 2108, 5-Cyclopropyl-2-[2-(2-methoxy-1,1-dimethyl-ethyl)-1H-pyrrolo[2,3-b]pyridin-4-yl]-4-piperazin-1-yl-pyrido[3,4-d]pyrimidine]
20 | > 7.00 | CC(C)(C)c1cc2c(-c3nc(N4CCNCC4)c4c(C5CC5)cncc4n3)ccnc2[nH]1 [Example 1231, 2-(2-tert-Butyl-1H-pyrrolo[2,3-b]pyridin-4-yl)-5-cyclopropyl-4-piperazin-1-yl-pyrido[3,4-d]pyrimidine]
21 | 5.00 to 6.00 | CCOc1cccc(-c2nccc3c(NC[C@@H](N)Cc4ccccc4)nc(-c4ccncc4)nc23)c1 [Example 117, N-[(2S)-2-amino-3-phenylpropyl]-8-(3-ethoxy-phenyl)-2-(pyridin-4-yl)-pyrido[3,4-d]-pyrimidin-4-amine]
22 | 6.00 to 7.00 | N[C@H](CNc1nc(-c2ccncc2)nc2c(-c3ccncc3)nccc12)Cc1ccccc1 [Example 100, N-[(2S)-2-amino-3-phenylpropyl]-2,8-bis(pyridin-4-yl)pyrido[3,4-d]pyrimidin-4-amine]
23 | > 7.00 | Cc1nc(Nc2cc(-c3nc(N4CCNCC4)c4c(C5CC5)cncc4n3)ccn2)oc1C [Example 272, [4-(5-Cyclopropyl-4-piperazin-1-yl-pyrido[3,4-d]pyrimidin-2-yl)-pyridin-2-yl]-(4,5-dimethyl-oxazol-2-yl)-amine]
24 | > 7.00 | COc1cncc2nc(-c3ccnc(Nc4cccc(CC(N)=O)c4)c3)nc(N[C@@H]3CCNC3)c12 [Example 324, 2-(3-{4-[5-Methoxy-4-((R)-pyrrolidin-3-ylamino)-pyrido[3,4-d]pyrimidin-2-yl]-pyridin-2-ylamino}-phenyl)-acetamide]
25 | > 7.00 | CC(C)(C)C(=O)N1CCC(Nc2cc(-c3nc(N4CCNCC4)c4c(C5CC5)cncc4n3)ccn2)CC1 [Example 813, 1-{4-[4-(5-Cyclopropyl-4-piperazin-1-yl-pyrido[3,4-d]pyrimidin-2-yl)-pyridin-2-ylamino]-piperidin-1-yl}-2,2-dimethyl-propan-1-one]
26 | > 7.00 | Fc1cc(F)c(F)c(Nc2cc(-c3nc(N[C@@H]4CCNC4)c4c(C5CC5)cncc4n3)ccn2)n1 [Example 2054, {5-Cyclopropyl-2-[2-(3,4,6-trifluoro-pyridin-2-ylamino)-pyridin-4-yl]-pyrido[3,4-d]pyrimidin-4-yl}-(R)-pyrrolidin-3-yl-amine]
27 | > 7.00 | N#Cc1cccc(CC(=O)Nc2cc(-c3nc(N[C@@H]4CCNC4)c4ccncc4n3)ccn2)c1 [Example 348, 2-(3-Cyano-phenyl)-N-{4-[4-((R)-pyrrolidin-3-ylamino)-pyrido[3,4-d]pyrimidin-2-yl]-pyridin-2-yl}-acetamide]
28 | > 7.00 | CCn1cc(Cl)c(Nc2cc(-c3nc(N4CCNC(C)(C)C4)c4c(C5CC5)cncc4n3)ccn2)n1 [Example 2043, (4-Chloro-1-ethyl-1H-pyrazol-3-yl)-{4-[5-cyclopropyl-4-(3,3-dimethyl-piperazin-1-yl)-pyrido[3,4-d]pyrimidin-2-yl]-pyridin-2-yl}-amine]
29 | > 7.00 | Fc1ccc(F)c(Nc2cc(-c3nc(N4CCNCC4)c4c(C5CC5)cncc4n3)ccn2)n1 [Example 548, [4-(5-Cyclopropyl-4-piperazin-1-yl-pyrido[3,4-d]pyrimidin-2-yl)-pyridin-2-yl]-(3,6-difluoro-pyridin-2-yl)-amine]
